# Key:
# [1] = Stability of the dye against glutathione (change in absorption at 880 nm); assay type: in vitro ADME; conditions: 17 μM dye, 40% DMSO/60% PBS, 10 mM reduced glutathione, after 30 min
# Procedure: (§1) FIGS. 3A-3B show absorption studies depicting the stability of XanthCR-880 (20 μM) to the treatment of glutathione (10 mM) (FIG. 3A) and esterase (5 units) (FIG. 3B).
# The XanthCR-880 dye was also shown to have excellent stability. The stability of XanthCR-880 dye was tested against glutathione, which is a potential reducing agent in biological media. The XanthCR-880 dye (17 μM) was prepared in 40% DMSO/60% PBS solution with 10 mM reduced glutathione and evaluated the change in the maximum absorption at 880 nm. The 10 mM concentration of reduced glutathione was selected to reflect the highest reported levels found in the body (i.e., liver). There was no change observed in the absorbance of the dye after 30 min.
# [2] = system: porcine liver esterase; test: Stability in the presence of esterase (absorbance); assay type: in vitro ADME; conditions: room temperature, 30 min
# Procedure: as §1
# (§2) The XanthCR-880 dye was evaluated for its compatibility as a PA contrast agent in chloroform (FIG. 3C) and PBS buffer and observed that the strongest intensity (XPA) was at 890 nm and 865 nm, respectively.
# [3] = Absorption spectra (maximum absorption wavelength); assay type: physicochemical
# Procedure: All chemicals and solvents were purchased from commercial suppliers and used without further purification unless other-wise specified. ^1H NMR (500 MHz) and ^13C NMR ([…]) spectra were recorded in deuterated solvents on a Bruker ADVANCE 500 NMR Spectrometer. J values are expressed in Hz and quoted chemical shifts are in ppm downfield from tetramethylsilane (TMS) reference using the residual protonated solvents as an internal standard. The signals have been designated as follows: s (singlet), d (doublet), t (triplet), m (multiplets). All the ^13C NMR are proton decoupled. High resolution mass spectra (HRMS) were determined on Broker-micrOTOF-Q II Mass Spectrometer. Concentrations are given in μM. Absorption spectra were acquired using a Cary 5000 UV-Vis-NIR spectrophotometer in a 1 cm quartz cell.
# The IR spectrums of the closed (Compound 3) and opened (XanthCR-880) forms of the dye are very distinct. The IR spectrums were obtained in dichloromethane (DCM) and dimethyl sulfoxide (DMSO) (FIG. 2). The maximum absorption wavelength (λabs) of the closed form (Compound 3) is 372 nm. However, when the dye was trapped in the opened form as the ethyl ester (XanthCR-880), the λabs shifted to 880 nm in DCM and 890 nm in DMSO, both of which are at the edge of the NIR I region and trail into the NIR II region.
# [4] = Photoacoustic spectrum (PA contrast agent compatibility); assay type: physicochemical
# Procedure: Photoacoustic A imaging was performed on an iThera Medical MSOT inVision 128 tomographer.
# as §2
# [5] = Photobleaching under continuous irradiation; assay type: physicochemical; conditions: continuous irradiation at λPA for 60 min; 20 μM in CHCl3
# Text: Ideally PA contrast agents are photostable. When PA contrast agent are used in studies, they may be subjected to multiple imaging sessions, and as such are ideally resistant to photobleaching.
# [6] = Fluorescence (fluorescent quantum yield attempt); assay type: physicochemical; conditions: attempts to determine the fluorescent quantum yield
# Text: Fluorescence spectra were acquired using a custom-built setup with discrete excitation wavelengths ranging from 226 nm to 1059 nm with a temperature range from 4.2 K to 300 K using a liquid He bath cryostat. Alternatively, a Horiba QuantaMaster 8075-21 spectrofluorometer with xenon lamp excitation and liquid nitrogen cooled indium gallium arsenide solid state detector could be used. […] excitation was chosen to coincide with a Xe emission peak.
SMILES,change in the absorbance of the dye (maximum absorption at 880 nm) [1],change in the absorbance [2],maximum absorption wavelength (λabs) ([3]; in DCM) [nm],maximum absorption wavelength (λabs) ([3]; in DMSO) [nm],absorption maximum ([3]; solvent not stated) [nm],wavelength of strongest photoacoustic intensity (λPA) ([4]; in PBS buffer) [nm],"wavelength of strongest photoacoustic intensity (λPA) ([4]; in chloroform (CHCl3), 20 μM) [nm]",decrease of PA signal (photobleaching) [5] [%],fluorescence [6],"maximum absorption wavelength (λabs) ([3]; closed form, spectra obtained in DCM and DMSO, solvent of this value not stated) [nm]"
"CCOC(=O)c1ccccc1C1=c2cc/c(=C3/C=CC(=[N+]4CCCCC4)S3)cc2Oc2cc(-c3ccc(N4CCCCC4)s3)ccc21.[Cl-] [XanthCR-880, 1-{5-[(3E)-9-[2-(Ethoxycarbonyl)phenyl]-6-[5-(piperidin-1-yl)thiophen-2-yl]-3H-xanthen-3-ylidene]-2,5-dihydrothiophen-2-ylidene}-1λ5-piperidin-1-ylium chloride]",no change,no significant change,880,890,880,865,890,45,sufficient fluorescence for brightness imaging,
O=C1OC2(c3ccc(-c4ccc(N5CCCCC5)s4)cc3Oc3cc(-c4ccc(N5CCCCC5)s4)ccc32)c2ccccc21 [Compound 3],,,,,,,,,,372

# Reference: patent US20240124714A1, “NEAR INFRARED DYES FOR BIOLOGICAL IMAGING AND OPTOELECTRONIC DEVICES” (Mississippi State University, priority 2022, published 2024)
